These results are taken from patent EP1961738A1, “New compounds with antiglutamatergic properties and uses thereof” (Faust Pharmaceuticals, priority 2007, dated 2008).

In the test the test system is cerebrospinal fluid glutamate level. The experiment in a line: Intracerebroventricular retrodialysis in rats with enzymatic chemiluminescent glutamate determination in microdialysates. It is filed as in vivo, Sprague-Dawley rats. The method, then:
For this example, intracerebroventricular retrodialysis was performed on rats according to techniques known to those skilled in the art. The analysis of microdialysates was performed according to Israël and collaborators' publication (Neurochem Int 22(1): 53-58, 1993). Procedures are described below:
Surgery was performed on adult male Sprague-Dawley rats weighing 330-340g at the time of surgery. Following induction of anaesthesia with intraperitoneal administration of ketamine/xylazine, animals were secured in a stereotaxic frame in the flat-skull position at a constant setting of -3.3mm between ear and incisor bars. After defining the "stereotaxic zero" in accordance with Paxinos and Watson's atlas (1986), a microdialysis guide cannula was directed towards the right lateral ventricle with the coordinates from Bregma: anteroposterior -0.8mm, mediolateral +1.5mm, and dorsoventral (DV) -1.5mm (CMA12 probe: 2mm membrane) (Khandewal et al., J Neurosci Methods 133(1-2): 181-189, 2004).
The guide cannula was fixed to the skull using dental cement and three stainless steel screws. […]
Samples were subsequently analysed for glutamate determination using an enzymatic assay (Israël et al., 1993). The procedure is based on the oxidation of L-glutamate […] with subsequent NADH production, the NADH being continuously evaluated using the photobacterium chemiluminescent reaction at 460-490nm. […]

SMILES strings stand for the structures.

For the molecule `NC(=O)NN=C1C=Cc2ccc(OCCN3CCOCC3)cc2C1=O` [Example 13, 7-(2-morpholin-4-yl-ethoxy) naphtalene-1,2-dione2-semicarbazone], for the setting “rat C (one rat out of five), 30µM solution by retrodialysis for 40min”, the “response of cerebrospinal fluid glutamate level to the compound” value is given as “did not response”. For the same molecule, the “decrease of the cerebrospinal fluid glutamate level” value (rats A, B, D and E (four of five), 30µM solution by retrodialysis for 40min into right lateral ventricle, after 80 minutes, relative to baseline set at 100%) is listed as “up to 50%”.
